# What was measured:
# [1] = Antioxidant activity assessed as DPPH radical scavenging activity at 25 ug/ml incubated for 30 mins by spectrophotometric analysis; type: functional; conditions: dose 25.0 µg/ml
# A549 = assay: Anticancer activity against human A549 cells assessed as reduction in cell viability incubated for 24 hrs by MTT assay; type: functional, cell-based; conditions: A549, 24 h
# HepG2 [2] = assay: Anticancer activity against human HepG2 cells assessed as reduction in cell viability; type: functional, cell-based
# DNA topoisomerase II = DNA topoisomerase II (Homo sapiens, UniProt P11388+Q02880); assay: Inhibition of DNA topoisomerase 2 (unknown origin); type: protein assay
# PC-3 [3] = assay: Anticancer activity against human PC-3 cells assessed as reduction in cell viability; type: functional, cell-based
# HCT-116 [4] = assay: Anticancer activity against human HCT-116 cells assessed as reduction in cell viability incubated for 24 hrs by MTT colorimetric assay; type: functional, cell-based; conditions: HCT-116, 24 h
# HepG2 [5] = assay: Anticancer activity against human HepG2 cells assessed as reduction in cell viability incubated for 24 hrs by MTT colorimetric assay; type: functional, cell-based; conditions: HepG2, 24 h
# MCF7 [6] = assay: Anticancer activity against human MCF7 cells assessed as reduction in cell viability incubated for 24 hrs by MTT colorimetric assay; type: functional, cell-based; conditions: MCF7, 24 h
# HCT-116 [7] = assay: cells; conditions: Homo sapiens
# Bacillus subtilis [8] = assay: Antibacterial activity against Bacillus subtilis ATCC 6633 assessed as diameter of inhibition zone incubated for 24 hrs by disc diffusion assay; type: functional
# Staphylococcus aureus [9] = assay: Antibacterial activity against Staphylococcus aureus ATCC 25923 assessed as diameter of inhibition zone incubated for 24 hrs by disc diffusion assay; type: functional
# Bacillus subtilis [10] = assay: Antibacterial activity against Bacillus subtilis ATCC 6633 assessed as inhibition of bacterial growth incubated for 24 hrs by broth macrodilution method; type: functional
# Staphylococcus aureus [11] = assay: Antibacterial activity against Staphylococcus aureus ATCC 25923 assessed as inhibition of bacterial growth incubated for 24 hrs by broth macrodilution method; type: functional
# MCF7 [12] = assay: Anticancer activity against human MCF7 cells assessed as reduction in cell viability; type: functional, cell-based
# [13] = Antioxidant activity assessed as DPPH radical scavenging activity at 50 ug/ml incubated for 30 mins by spectrophotometric analysis; type: functional; conditions: dose 50.0 µg/ml
# [14] = Antioxidant activity assessed as DPPH radical scavenging activity at 75 ug/ml incubated for 30 mins by spectrophotometric analysis; type: functional; conditions: dose 75.0 µg/ml
# [15] = Antioxidant activity assessed as DPPH radical scavenging activity at 100 ug/ml incubated for 30 mins by spectrophotometric analysis; type: functional; conditions: dose 100.0 µg/ml
# MDA-MB-435 [16] = assay: Anticancer activity against human MDA-MB-435 cells assessed as cell growth inhibition by sulforhodamine B assay; type: functional
# PC-3 [17] = assay: Anticancer activity against human PC-3 cells assessed as cell growth inhibition by sulforhodamine B assay; type: functional
# OVCAR-3 [18] = assay: Anticancer activity against human OVCAR-3 cells assessed as cell growth inhibition by sulforhodamine B assay; type: functional
# MDA-MB-435 [19] = assay: Anticancer activity against human MDA-MB-435 cells assessed as tumor growth inhibition by sulforhodamine B assay; type: functional
# PC-3 [20] = assay: Anticancer activity against human PC-3 cells assessed as tumor growth inhibition by sulforhodamine B assay; type: functional
# OVCAR-3 [21] = assay: Anticancer activity against human OVCAR-3 cells assessed as tumor growth inhibition by sulforhodamine B assay; type: functional
# MDA-MB-435 [22] = assay: Anticancer activity against human MDA-MB-435 cells assessed as lethality by sulforhodamine B assay; type: functional; conditions: read-out: LC50 (the source's name)
# PC-3 [23] = assay: Anticancer activity against human PC-3 cells assessed as lethality by sulforhodamine B assay; type: functional; conditions: read-out: LC50 (the source's name)
# OVCAR-3 [24] = assay: Anticancer activity against human OVCAR-3 cells assessed as lethality by sulforhodamine B assay; type: functional; conditions: read-out: LC50 (the source's name)
# [25] = tested on: Human immunodeficiency virus 1; assay: Antiviral activity against HIV1 IIIB infected in human MT4 cells assessed as reduction in virus-induced cytopathic effect by MTT assay; type: functional, organism-based; conditions: Human immunodeficiency virus 1, IIIB
# [26] = tested on: Human immunodeficiency virus 2; assay: Antiviral activity against HIV2 ROD infected in human MT4 cells assessed as reduction in virus-induced cytopathic effect by MTT assay; type: functional, organism-based; conditions: Human immunodeficiency virus 2, ROD
# DNA = assay: Binding affinity to DNA (unknown origin) assessed as DNA intercalation; type: nucleic-acid assay
# Aspergillus niger [27] = assay: Antifungal activity against Aspergillus niger ATCC 6275 assessed as diameter of inhibition zone incubated for 7 days by disc diffusion assay; type: functional; conditions: time 7 day
# Aspergillus niger [28] = assay: Antifungal activity against Aspergillus niger ATCC 6275 assessed as inhibition of […] growth incubated for 7 days by broth macrodilution method; type: functional; conditions: ATCC 6275, 168 h, time 7 day
# Escherichia coli = assay: Antimicrobial activity against Escherichia coli assessed as diameter of inhibition zone by agar well diffusion method; type: functional
# Bacillus subtilis [29] = assay: Antimicrobial activity against Bacillus subtilis assessed as diameter of inhibition zone by agar well diffusion method; type: functional
compound,measurement,setting,value
NC(=O)C1=C(N)Oc2[nH]nc(-c3ccccc3)c2C1c1coc2ccccc2c1=O (centres undefined),Activity,[1],62.5%
COc1cccc2c1C(=O)c1c(O)c3c(c(O)c1C2=O)C[C@@](O)(C(=O)CO)C[C@@H]3O[C@H]1C[C@H](N)[C@H](O)[C@H](C)O1 [DOXORUBICIN],IC50,A549,140 nM
same,IC50,HepG2 [2],7940 nM
same,IC50,DNA topoisomerase II,940 nM
same,IC50,PC-3 [3],0.467 µg/mL
same,IC50,HCT-116 [4],467 nM
same,IC50,HepG2 [5],467 nM
same,IC50,MCF7 [6],467 nM
same,IC50,HCT-116 [7],2610 nM
COc1ccc(C2c3c([nH]c(=O)[nH]c3=O)Oc3ncn(C(N)=O)c(=N)c32)cc1 (centres undefined),diameter of the inhibition zone (DIZ),Bacillus subtilis [8],26 mm
same,diameter of the inhibition zone (DIZ),Staphylococcus aureus [9],21.7 mm
same,MIC,Bacillus subtilis [10],0.097 µg/mL
same,MIC,Staphylococcus aureus [11],0.781 µg/mL
same,IC50,HepG2 [2],2090 nM
same,IC50,MCF7 [12],2430 nM
same,IC50,HCT-116 [7],2610 nM
O=c1c(C2c3c(-c4ccccc4)n[nH]c3Oc3[nH]c(=S)[nH]c(=S)c32)coc2ccccc12 (centres undefined),Activity,[13],66.5%
same,Activity,[14],84.3%
same,Activity,[15],86.4%
CCOC(=O)C1=C(N)Oc2[nH]c(=O)[nH]c(=O)c2C1c1cccc([N+](=O)[O-])c1 (centres undefined),IC50,HepG2 [2],0.25 µg/mL
same,IC50,PC-3 [3],0.25 µg/mL
same,IC50,HCT-116 [7],0.25 µg/mL
N#CC1=C(N)Oc2[nH]c(=O)[nH]c(=O)c2C1c1ccco1 (centres undefined),GI50,MDA-MB-435 [16],> 100000 nM
same,GI50,PC-3 [17],> 100000 nM
same,GI50,OVCAR-3 [18],> 100000 nM
same,TGI,MDA-MB-435 [19],>100%
same,TGI,PC-3 [20],98.8%
same,TGI,OVCAR-3 [21],>100%
same,CC50,MDA-MB-435 [22],> 100000 nM
same,CC50,PC-3 [23],> 100000 nM
same,CC50,OVCAR-3 [24],> 100000 nM
Cc1cn([C@H]2C[C@H](N=[N+]=[N-])[C@@H](CO)O2)c(=O)[nH]c1=O [ZIDOVUDINE],EC50,[25],0.0022 µg/mL
same,EC50,[26],0.00094 µg/mL
CCC(C)n1cnc2c(c1=N)C(c1ccc(OC)cc1)c1c([nH]c(=O)[nH]c1=O)O2 (centres undefined),diameter of the inhibition zone (DIZ),Bacillus subtilis [8],26 mm
same,diameter of the inhibition zone (DIZ),Staphylococcus aureus [9],20.8 mm
same,MIC,Bacillus subtilis [10],0.097 µg/mL
same,MIC,Staphylococcus aureus [11],1.56 µg/mL
same,IC50,HepG2 [2],2090 nM
same,IC50,MCF7 [12],2430 nM
same,IC50,DNA topoisomerase II,752 nM
same,IC50,DNA,27000 nM
same,IC50,HCT-116 [7],2610 nM
C[C@@H]1[C@H](O)[C@@H](C)/C=C/C=C/C=C/C=C/C=C/C=C/C=C/[C@H](O[C@@H]2O[C@H](C)[C@@H](O)[C@H](N)[C@@H]2O)C[C@@H]2O[C@](O)(C[C@@H](O)C[C@@H](O)[C@H](O)CC[C@@H](O)C[C@@H](O)CC(=O)O[C@H]1C)C[C@H](O)[C@H]2C(=O)O [AMPHOTERICIN B],diameter of the inhibition zone (DIZ),Aspergillus niger [27],26.3 mm
same,MIC,Aspergillus niger [28],0.781 µg/mL
CC(=O)C1=C(C)Oc2[nH]c(=O)[nH]c(=O)c2C1c1cccc([N+](=O)[O-])c1 (centres undefined),IC50,HepG2 [2],5.21 µg/mL
same,IC50,PC-3 [3],4.8 µg/mL
same,IC50,HCT-116 [7],7.65 µg/mL
C[C@H]1COc2c(N3CCN(C)CC3)c(F)cc3c(=O)c(C(=O)O)cn1c23.C[C@H]1COc2c(N3CCN(C)CC3)c(F)cc3c(=O)c(C(=O)O)cn1c23.O [LEVOFLOXACIN],diameter of the inhibition zone (DIZ),Escherichia coli,29.35 mm
same,diameter of the inhibition zone (DIZ),Bacillus subtilis [29],26 mm

# — ChEMBL document CHEMBL5241112, “Insights into the recent progress in the medicinal chemistry of pyranopyrimidine analogs” (RSC Med Chem, 2022)
